Test results as given in ChEMBL document CHEMBL5113538, “Discovery of Novel Allosteric EGFR L858R Inhibitors for the Treatment of Non-Small-Cell Lung Cancer as a Single Agent or in Combination with Osimertinib” (J Med Chem, 2022).

Tests used:
[1] = Volume of distribution at steady state in CD1 mouse at 1 mg/kg, iv administered as single dose measured after 24 hrs by LC-MS/MS analysis; assay type: ADME, organism-based; details: in vivo, read-out: Vdss
[2] = Clearance in CD1 mouse at 1 mg/kg, iv administered as single dose measured after 24 hrs by LC-MS/MS analysis; assay type: ADME, organism-based; details: in vivo
[3] = test system: NCI-H292; assay: Antiproliferative activity against human NCI-H292 cells assessed as cell growth inhibition; assay type: functional
[4] = test system: L-363; assay: Antiproliferative activity against human L-363 cells assessed as cell growth inhibition; assay type: functional
[5] = Tlast in CD1 mouse at 10 mg/kg, po administered as single dose measured after 24 hrs by LC-MS/MS analysis; assay type: ADME, organism-based; details: in vivo
[6] = Toxicity in Balb/c nude mouse allografted with mouse BaF3 cells harboring EGFR L858R/C797S mutant assessed as change in body weight at 10 mg/kg, po administered twice daily for 20 days; assay type: organism-based; details: in vivo, 480 h, time 20 day
[7] = biological target: T1, Glucocorticoid receptor (Homo sapiens) (UniProt P04150); assay: Inhibition of glucocorticoid receptor (unknown origin) at 10 uM relative to control
T1 sequence (whole entry): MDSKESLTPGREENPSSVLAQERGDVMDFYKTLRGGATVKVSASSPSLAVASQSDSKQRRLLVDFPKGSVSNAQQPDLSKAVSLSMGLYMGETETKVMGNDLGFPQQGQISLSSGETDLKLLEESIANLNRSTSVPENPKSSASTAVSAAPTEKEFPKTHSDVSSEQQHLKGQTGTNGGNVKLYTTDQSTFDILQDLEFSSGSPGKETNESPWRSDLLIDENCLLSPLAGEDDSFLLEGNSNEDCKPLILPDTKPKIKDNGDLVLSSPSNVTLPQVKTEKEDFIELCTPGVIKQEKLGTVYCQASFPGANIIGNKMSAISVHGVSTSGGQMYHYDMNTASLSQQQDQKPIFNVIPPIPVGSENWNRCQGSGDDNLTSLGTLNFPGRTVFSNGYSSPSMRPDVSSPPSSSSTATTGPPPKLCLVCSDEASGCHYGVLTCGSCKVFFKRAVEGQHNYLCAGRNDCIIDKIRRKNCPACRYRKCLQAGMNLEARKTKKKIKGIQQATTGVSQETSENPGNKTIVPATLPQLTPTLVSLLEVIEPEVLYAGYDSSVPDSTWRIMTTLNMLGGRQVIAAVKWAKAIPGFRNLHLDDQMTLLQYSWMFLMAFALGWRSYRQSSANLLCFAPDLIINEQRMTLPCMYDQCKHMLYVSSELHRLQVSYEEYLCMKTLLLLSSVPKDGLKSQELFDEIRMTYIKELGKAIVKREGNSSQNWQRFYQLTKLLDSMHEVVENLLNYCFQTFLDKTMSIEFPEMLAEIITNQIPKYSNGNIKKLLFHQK

[8] = Oral bioavailability in CD1 mouse at 10 mg/kg administered as single dose measured after 24 hrs by LC-MS/MS analysis; assay type: ADME, organism-based; details: in vivo
[9] = test system: NCI-H1975; assay: Antitumor activity against human NCI-H1975 cells harboring EGFR L858R/T790M mutant xenografted in Balb/c nude mouse assessed as in tumor growth inhibition at 10 mg/kg, po administered twice daily measured after 14 days; assay type: functional; details: NCI-H1975, 336 h, time 14 day, read-out: TGI
[10] = biological target: Angiotensin-converting enzyme (Homo sapiens, UniProt P12821); assay: Inhibition of angiotensin-converting enzyme (unknown origin)
[11] = Toxicity in Balb/c nude mouse xenografted with human NCI-H1975 cells harboring EGFR L858R/T790M mutant assessed as change in body weight at 10 mg/kg, po administered twice daily measured after 14 days; assay type: organism-based; details: in vivo, 336 h, time 14 day
[12] = biological target: T2, D(2) dopamine receptor (Homo sapiens, UniProt P14416); assay: Inhibition of dopamine D2 receptor (unknown origin) at 10 uM relative to control
[13] = test system: SU-DHL-6; assay: Antiproliferative activity against human SU-DHL-6 cells assessed as cell growth inhibition; assay type: functional
[14] = AUC (0 to infinity) in CD1 mouse at 1 mg/kg, iv administered as single dose measured after 24 hrs by LC-MS/MS analysis; assay type: ADME, organism-based; parameters: time 24 hrs, dose 1 mg/kg, route iv; details: in vivo
[15] = Cmax in CD1 mouse at 10 mg/kg, po administered as single dose measured after 24 hrs by LC-MS/MS analysis; assay type: ADME, organism-based; parameters: dose 10 mg/kg, time 24 hrs, route po; details: in vivo
[16] = test system: BaF3; assay: Antitumor activity against mouse BaF3 cells harboring EGFR L858R/C797S mutant allografted in Balb/c nude mouse assessed as in tumor growth inhibition at 10 mg/kg, po administered twice daily measured on day 20; assay type: functional; details: BaF3, 480 h, time 20 day, read-out: TGI
[17] = biological target: T3, Muscarinic acetylcholine receptor M2 (Homo sapiens, UniProt P08172); assay: Inhibition of muscarinic M2 receptor (unknown origin)
T3 sequence (P08172 whole entry): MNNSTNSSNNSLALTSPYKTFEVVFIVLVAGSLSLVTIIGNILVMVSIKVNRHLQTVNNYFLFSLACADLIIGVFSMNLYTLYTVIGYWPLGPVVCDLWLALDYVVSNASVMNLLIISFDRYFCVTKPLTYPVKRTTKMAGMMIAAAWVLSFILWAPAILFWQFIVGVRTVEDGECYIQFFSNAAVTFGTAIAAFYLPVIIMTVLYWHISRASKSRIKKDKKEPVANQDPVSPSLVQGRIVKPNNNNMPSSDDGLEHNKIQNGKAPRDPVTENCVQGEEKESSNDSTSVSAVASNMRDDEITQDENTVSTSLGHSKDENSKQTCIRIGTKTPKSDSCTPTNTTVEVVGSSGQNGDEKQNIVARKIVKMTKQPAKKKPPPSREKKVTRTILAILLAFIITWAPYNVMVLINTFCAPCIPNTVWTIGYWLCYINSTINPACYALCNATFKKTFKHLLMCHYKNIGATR

[18] = biological target: T4, Glucocorticoid receptor (Homo sapiens, UniProt P04150); assay: Inhibition of glucocorticoid receptor (unknown origin)
T4 sequence (P04150 whole entry): T1 sequence (whole entry)

[19] = biological target: T5, Adenosine receptor A3 (Homo sapiens, UniProt P0DMS8); assay: Inhibition of adenosine A3 receptor (unknown origin)
T5 sequence (P0DMS8 whole entry): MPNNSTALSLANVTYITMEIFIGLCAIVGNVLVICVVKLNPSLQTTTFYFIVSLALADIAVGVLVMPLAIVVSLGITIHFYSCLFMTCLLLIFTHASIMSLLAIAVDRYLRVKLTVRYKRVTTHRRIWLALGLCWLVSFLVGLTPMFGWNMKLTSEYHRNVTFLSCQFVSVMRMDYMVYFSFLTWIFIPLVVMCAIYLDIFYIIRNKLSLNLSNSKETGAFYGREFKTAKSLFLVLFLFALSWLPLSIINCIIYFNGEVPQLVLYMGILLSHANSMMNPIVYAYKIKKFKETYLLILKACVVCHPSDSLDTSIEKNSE

[20] = biological target: T2, D(2) dopamine receptor; assay: Inhibition of dopamine D2 receptor (unknown origin)
[21] = test system: BaF3; assay: Cytotoxicity against mouse BaF3 cells expressing EGFR L858R/T790M/C797S mutant assessed as reduction in cell viability measured after 72 hrs by cell titre glo luminescence assay; assay type: functional, cell-based; details: BaF3, 72 h

T2 sequence (P14416 whole entry): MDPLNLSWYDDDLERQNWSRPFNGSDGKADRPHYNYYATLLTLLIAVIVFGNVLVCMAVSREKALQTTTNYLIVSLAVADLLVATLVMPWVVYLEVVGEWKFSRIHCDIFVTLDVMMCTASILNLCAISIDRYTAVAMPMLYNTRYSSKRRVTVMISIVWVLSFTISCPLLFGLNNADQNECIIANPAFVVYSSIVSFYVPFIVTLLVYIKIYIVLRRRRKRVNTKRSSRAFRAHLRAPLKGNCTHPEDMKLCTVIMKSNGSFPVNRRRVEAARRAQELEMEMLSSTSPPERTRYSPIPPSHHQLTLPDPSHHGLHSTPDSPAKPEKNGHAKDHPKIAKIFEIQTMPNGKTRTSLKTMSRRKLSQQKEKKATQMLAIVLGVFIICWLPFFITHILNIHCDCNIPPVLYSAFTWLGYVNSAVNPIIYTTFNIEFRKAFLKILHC
Chain of Angiotensin-converting enzyme (P12821 whole entry): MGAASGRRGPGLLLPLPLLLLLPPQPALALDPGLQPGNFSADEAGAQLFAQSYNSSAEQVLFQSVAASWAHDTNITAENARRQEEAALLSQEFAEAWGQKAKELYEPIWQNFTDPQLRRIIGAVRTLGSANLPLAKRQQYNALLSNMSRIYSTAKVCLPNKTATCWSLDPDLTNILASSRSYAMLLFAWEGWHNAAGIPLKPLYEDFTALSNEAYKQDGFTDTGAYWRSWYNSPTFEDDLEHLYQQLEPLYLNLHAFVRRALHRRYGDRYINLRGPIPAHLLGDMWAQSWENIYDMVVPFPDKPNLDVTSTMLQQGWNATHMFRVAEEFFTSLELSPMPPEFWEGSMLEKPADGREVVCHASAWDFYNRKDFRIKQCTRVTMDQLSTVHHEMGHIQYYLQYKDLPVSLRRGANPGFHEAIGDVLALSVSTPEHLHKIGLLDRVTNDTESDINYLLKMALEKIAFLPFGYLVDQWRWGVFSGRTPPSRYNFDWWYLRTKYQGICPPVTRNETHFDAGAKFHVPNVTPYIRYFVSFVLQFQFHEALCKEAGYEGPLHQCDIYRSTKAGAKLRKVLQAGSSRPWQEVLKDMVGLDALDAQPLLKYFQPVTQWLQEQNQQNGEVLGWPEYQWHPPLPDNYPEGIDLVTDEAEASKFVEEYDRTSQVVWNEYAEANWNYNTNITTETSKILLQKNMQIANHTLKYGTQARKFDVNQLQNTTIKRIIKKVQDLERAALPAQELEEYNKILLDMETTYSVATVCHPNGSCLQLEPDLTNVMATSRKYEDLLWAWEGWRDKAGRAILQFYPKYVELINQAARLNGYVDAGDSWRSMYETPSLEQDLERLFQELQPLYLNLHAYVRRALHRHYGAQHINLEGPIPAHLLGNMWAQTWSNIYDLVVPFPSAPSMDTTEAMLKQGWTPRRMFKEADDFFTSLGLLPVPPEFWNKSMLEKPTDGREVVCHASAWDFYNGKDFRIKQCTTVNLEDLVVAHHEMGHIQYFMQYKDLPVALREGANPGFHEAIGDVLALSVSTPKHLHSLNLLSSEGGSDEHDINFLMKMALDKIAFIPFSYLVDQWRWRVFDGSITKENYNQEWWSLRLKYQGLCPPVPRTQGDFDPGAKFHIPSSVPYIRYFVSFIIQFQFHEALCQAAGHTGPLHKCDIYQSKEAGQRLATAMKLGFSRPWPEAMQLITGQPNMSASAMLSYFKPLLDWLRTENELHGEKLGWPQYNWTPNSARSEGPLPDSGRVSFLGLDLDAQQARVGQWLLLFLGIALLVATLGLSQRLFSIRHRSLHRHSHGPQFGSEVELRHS

- Vd [1]: 10 L/kg
- clearance [2]: 20 mL/min/kg
- GI50 [3]: 350 nM
- Tlast [5]: 24 h
- inhibition [7]: 90%
- bioavailability [8]: 22%
- IC50 [10]: > 3000 nM
- inhibition [12]: 98%
- GI50 [13]: 1460 nM
- AUC(0-inf) [14]: 871 ng·h/mL
- Cmax [15]: 135 ng/mL
- IC50 [17]: 1800 nM
- IC50 [18]: 3200 nM
- IC50 [19]: 200 nM
- IC50 [20]: 1000 nM
Compound: Cc1c(C#Cc2ccc(CN3CCC(CO)CC3)cc2)cc(C(F)F)c2cn(C(C(=O)Nc3nccs3)c3ncn4c3CCC43CC3)nc12 (stereo unspecified)
- GI50 [4]: 1320 nM
- Activity [6]: Non-Toxic
- inhibition in vivo at 10 mg/kg [9]: 69%
- Activity [11]: Non-Toxic
- inhibition in vivo at 10 mg/kg [16]: 70%
- IC50 [21]: 1 nM
